Laboratory results from paper PMC9354243, “The Role of Tryptophan in π Interactions in Proteins: An Experimental Approach” (Journal of the American Chemical Society, 2022).
Read-outs that look alike come from different tables or passages of the source.

Key:
5,6,7triFW-LmrR = 5,6,7triFW-LmrR (Lactococcus lactis subsp. cremoris, UniProt A2RI36); assay: SPR binding of drugs to immobilized 5,6,7triFW-LmrR; settings: for Kd: Binding affinity, Kd, 5,6,7triFW LmrR, SPR, mean ± SD n = 3
Description: (§1) LmrR binds different drugs including Dau and RBF.[19],[20] To investigate the importance of π–π interactions for drug binding, the electron density in the π electron cloud of W96 was modulated by progressive fluorination of the W96 indole side chain. The binding affinities of LmrR for Dau and RBF decreased upon increasing degrees of fluorination of W96 (Table 2, Figure S3). […] Dau behaved less extreme, with the kd […] 6-fold (Table 2).
(§2) The thermodynamics of the LmrR–Dau interaction was recently reported to be mostly entropy driven.[21] To investigate this point in more detail the temperature dependence of the LmrR–Dau interaction was studied by surface plasmon resonance (SPR) experiments at 10 and 25 °C. […] The average ΔΔG from 6 LmrR variants is around 0.1 kJ/mol. These values imply that the temperature effects on the ΔGs are negligible, which would be in line with a low contribution of entropic factors to the Dau–LmrR interaction.
(§3) The SPR assays can also inform on the kinetics of the LmrR-drug interaction, but for the assays at 25 °C, the kon and koff rates could not be analyzed properly, because the rates were too fast at those conditions. The koff rates increase when the electron density of the π-electron cloud in W96 decreases, in support of a sizable contribution of the π–π stacking interaction to the drug binding affinity. […]
(§4) MALDI-TOF. A purified LmrR solution (~6 mg/ml) was diluted to ~0.5 mg/ml with 100 mM NH4HCO3, and incubated with 5 µg/ml of trypsin during 2 h at 37 °C. 1 µl of digested LmrR was spotted, dried and quickly washed with 1 µl MilliQ water twice. Subsequently, 1 µl of matrix solution (10 mg/ml α- cyano-4-hydroxycinnamate (LaserBio Labs) in 50 % acetonitrile/0.1 % (v/v) trifluoroacetic acid) was spotted on top of the washed sample. Spots were measured using a Voyager DE-PRO MALDI-TOF (time of flight) instrument (Applied Biosystems). The incorporation efficiency of Trp analog was calculated after measuring the peak areas of the peptide conta ining either Trp or Trp analog.
(§5) Binding assays - surface plasmon resonance (SPR). LmrR and mutants were immobilized on a CM5 sensor chip and binding of drugs was monitored using a BIACORE3000 system. The binding responses of Dau and RBF to LmrR were measured in triplicate at both 25 °C and 10 °C, in HBS-EP running buffer (10 mM HEPES, pH 7.4, 150 mM NaCl, 50 µM EDTA, and 0.005% surfactant P-20). The binding responses were corrected by subtracting the response measured in the control lane, to which a […]
(§6) This protein, 4-oxalocrotonate tautomerase mutant Ala33Asp15 was a gift of J.-Y. van der Meer. Steady state responses after injection of serial dilutions of Dau and RBF were used for the determination of the dissociation constant (K d) values, using the BIAevaluation v.4.1 (GE Healthcare ) and GraphPad Prism v5.00 software . The One site-Total equation from GraphPad Prism software was used for the calculation of Kd as follows:
(§7) Y=Bmax*X/(Kd+X) + NS*X + Background . Equilibrium response Y is obtained at ligand concentration X.
(§8) Bmax represents the maximum specific binding response to the same sensorchip. NS is the slope of nonspecific binding in Y units divided by X units. […]
(§9) without addition of ligand. Binding free energies, ΔGs, were derived from the dissociation constant K d according to […].
(§10) Where possible, rate constants were determined using the BIAevaluation v.4.1 (GE Healthcare ) software. k off values were determined by fitting a 1:1 (Langmuir ) binding model . Each koff value is the average of 3 determinations.

W-LmrR = W-LmrR (Lactococcus lactis subsp. cremoris, UniProt A2RI36); assay: SPR binding of drugs to immobilized wild type LmrR (W-LmrR); settings: for Contribution of the π–π interactions to the total binding energy: extrapolation with 4,5,6,7tetraFW as baseline; for Kd: W (wild type) LmrR, SPR, mean ± SD n = 3
Sequence of W-LmrR (A2RI36 entry or part of it): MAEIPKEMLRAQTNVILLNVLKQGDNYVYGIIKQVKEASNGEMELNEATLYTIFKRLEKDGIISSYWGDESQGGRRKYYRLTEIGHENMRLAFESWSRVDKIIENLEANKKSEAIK
Description: as §1, §2, §3, §4, §5, §6, §7, §8, §9, §10

4,5,6,7tetraFW-LmrR = 4,5,6,7tetraFW-LmrR (Lactococcus lactis subsp. cremoris, UniProt A2RI36); assay: biochemical; type: binding; settings: for Fold decrease of LmrR binding affinity, W-LmrR to 4,5,6,7tetraFW-LmrR: equals enhancement of affinity by π–π stacking; for Kd: Binding affinity, Kd, 4,5,6,7tetraFW LmrR, SPR, mean ± SD n = 3
Sequence of 4,5,6,7tetraFW-LmrR (A2RI36 entry or part of it): as above
Description: LmrR binds different drugs including Dau and RBF.[19],[20] To investigate the importance of π–π interactions for drug binding, the electron density in the π electron cloud of W96 was modulated by progressive fluorination of the W96 indole side chain.
The thermodynamics of the LmrR–Dau interaction was recently reported to be mostly entropy driven.[21] To investigate this point in more detail the temperature dependence of the LmrR–Dau interaction was studied by surface plasmon resonance (SPR) experiments at 10 and 25 °C. […]
as §4, §5
This protein, 4-oxalocrotonate tautomerase mutant Ala33Asp15 was a gift of J.-Y. van der Meer. Steady state responses after injection

5FW-LmrR = 5FW-LmrR (Lactococcus lactis subsp. cremoris, UniProt A2RI36); assay: SPR binding of drugs to immobilized 5FW-LmrR; settings: for Kd: Binding affinity, SPR, mean ± SD n = 3
Sequence of 5FW-LmrR (A2RI36 entry or part of it): as above
Description: as §1, §2, §3, §4, §5, §6, §7, §8, §9, §10

LmrR labeled with 5MeW = LmrR labeled with 5MeW (Lactococcus lactis subsp. cremoris, UniProt A2RI36); assay: SPR binding of drugs to immobilized LmrR labeled with 5MeW; settings: for Kd: Binding affinity, SPR, mean ± SD n = 3
Sequence of LmrR labeled with 5MeW (A2RI36 entry or part of it): as above
Description: as §1, §2, §3, §4, §5, §6, §7, §8, §9, §10

5,6diFW-LmrR = 5,6diFW-LmrR (Lactococcus lactis subsp. cremoris, UniProt A2RI36); assay: SPR binding of drugs to immobilized 5,6diFW-LmrR; settings: for Kd: Binding affinity, Kd, 5,6diFW LmrR, SPR, mean ± SD n = 3
Sequence of 5,6diFW-LmrR (A2RI36 entry or part of it): as above
Description: as §1, §2, §3, §4, §5, §6, §7, §8, §9, §10

[1] = 5,6,7triFW LmrR, 25 °C, derived from Kd
[2] = 4,5,6,7tetraFW LmrR, 25 °C, derived from Kd
[3] = 5FW LmrR, 25 °C, derived from Kd
[4] = 5MeW LmrR, 25 °C, derived from Kd
[5] = 5,6diFW LmrR, 25 °C, derived from Kd

Sequence of 5,6,7triFW-LmrR (A2RI36 entry or part of it): as above

Cc1cc2nc3c(=O)[nH]c(=O)nc-3n(C[C@H](O)[C@H](O)[C@H](O)CO)c2cc1C [RBF, riboflavin]
Free energy of ligand binding ΔG25 °C (5,6,7triFW-LmrR; [1]): –29.0 kJ/mol
Kd (5,6,7triFW-LmrR; 25 °C): 8370 ± 200 nM
Contribution of the π–π interactions as share of the total binding energy (W-LmrR; 25 °C): 29%
Contribution of the π–π interactions to the total binding energy (W-LmrR; 25 °C): -2.51 kcal/mol
Kd (W-LmrR; 25 °C, read-out: Binding affinity, Kd): 460 ± 50 nM
Free energy of ligand binding ΔG25 °C (W-LmrR; W LmrR, 25 °C, derived from Kd): –36.2 kJ/mol
Free energy of ligand binding ΔG25 °C (4,5,6,7tetraFW-LmrR; [2]): –25.7 kJ/mol
Fold decrease of LmrR binding affinity, W-LmrR to 4,5,6,7tetraFW-LmrR (4,5,6,7tetraFW-LmrR; 25 °C): 70 fold
Kd (4,5,6,7tetraFW-LmrR; 25 °C): 33400 ± 16000 nM
Free energy of ligand binding ΔG25 °C (5FW-LmrR; [3]): –34.3 kJ/mol
Kd (5FW-LmrR; 5FW LmrR, 25 °C): 970 ± 50 nM
Free energy of ligand binding ΔG25 °C (LmrR labeled with 5MeW; [4]): –36.6 kJ/mol
Kd (LmrR labeled with 5MeW; 5MeW LmrR, 25 °C): 380 ± 8 nM
Free energy of ligand binding ΔG25 °C (5,6diFW-LmrR; [5]): –30.2 kJ/mol
Kd (5,6diFW-LmrR; 25 °C): 4990 ± 60 nM

COc1cccc2c1C(=O)c1c(O)c3c(c(O)c1C2=O)C[C@@](O)(C(C)=O)C[C@@H]3O[C@H]1C[C@H](N)[C@H](O)[C@H](C)O1 [Dau, Daunomycin]
koff (5,6,7triFW-LmrR): 0.8 ± 0.1 s⁻¹
ΔΔG, ΔG10 °C – ΔG25 °C (5,6,7triFW-LmrR; 5,6,7triFW LmrR): –0.4 kJ/mol
Free energy of ligand binding ΔG10 °C (5,6,7triFW-LmrR; 5,6,7triFW LmrR, 10 °C, derived from Kd): –33.7 kJ/mol
Free energy of ligand binding ΔG25 °C (5,6,7triFW-LmrR; [1]): –33.3 kJ/mol
Kd (5,6,7triFW-LmrR; 10 °C): 590 ± 60 nM
Kd (5,6,7triFW-LmrR; 25 °C): 1440 ± 100 nM
koff (W-LmrR): 0.4 ± 0.07 s⁻¹
Contribution of the π–π interactions as share of the total binding energy (W-LmrR; 25 °C): 13%
Contribution of the π–π interactions to the total binding energy (W-LmrR; 25 °C): -1.15 kcal/mol
Kd (W-LmrR; Binding affinity, Kd, 10 °C): 315 ± 40 nM
Kd (W-LmrR; Binding affinity, Kd, 25 °C): 450 ± 50 nM
ΔΔG, ΔG10 °C – ΔG25 °C (W-LmrR; W LmrR): 0.22 kcal/mol
Free energy of ligand binding ΔG10 °C (W-LmrR; W LmrR, 10 °C, derived from Kd): –35.2 kJ/mol
Free energy of ligand binding ΔG25 °C (W-LmrR; W LmrR, 25 °C, derived from Kd): –36.2 kJ/mol
koff (4,5,6,7tetraFW-LmrR): 1.5 ± 0.09 s⁻¹
ΔΔG, ΔG10 °C – ΔG25 °C (4,5,6,7tetraFW-LmrR; 4,5,6,7tetraFW LmrR): 0.072 kcal/mol
Free energy of ligand binding ΔG10 °C (4,5,6,7tetraFW-LmrR; 4,5,6,7tetraFW LmrR, 10 °C, derived from Kd): –31.3 kJ/mol
Free energy of ligand binding ΔG25 °C (4,5,6,7tetraFW-LmrR; [2]): –31.6 kJ/mol
Fold decrease of LmrR binding affinity, W-LmrR to 4,5,6,7tetraFW-LmrR (4,5,6,7tetraFW-LmrR; 25 °C): 6 fold
Kd (4,5,6,7tetraFW-LmrR; 10 °C): 1680 ± 70 nM
Kd (4,5,6,7tetraFW-LmrR; 25 °C): 2880 ± 500 nM
koff (5FW-LmrR): 0.6 ± 0.001 s⁻¹
ΔΔG, ΔG10 °C – ΔG25 °C (5FW-LmrR; 5FW LmrR): 0.22 kcal/mol
Free energy of ligand binding ΔG10 °C (5FW-LmrR; 5FW LmrR, 10 °C, derived from Kd): –35.5 kJ/mol
Free energy of ligand binding ΔG25 °C (5FW-LmrR; [3]): –36.4 kJ/mol
Kd (5FW-LmrR; 5FW LmrR, 10 °C): 280 ± 40 nM
Kd (5FW-LmrR; 5FW LmrR, 25 °C): 430 ± 80 nM
koff (LmrR labeled with 5MeW): 0.2 ± 0.04 s⁻¹
ΔΔG, ΔG10 °C – ΔG25 °C (LmrR labeled with 5MeW; 5MeW LmrR): –1.1 kJ/mol
Free energy of ligand binding ΔG10 °C (LmrR labeled with 5MeW; 5MeW LmrR, 10 °C, derived from Kd): –37.8 kJ/mol
Free energy of ligand binding ΔG25 °C (LmrR labeled with 5MeW; [4]): –36.7 kJ/mol
Kd (LmrR labeled with 5MeW; 5MeW LmrR, 10 °C): 104 ± 5 nM
Kd (LmrR labeled with 5MeW; 5MeW LmrR, 25 °C): 370 ± 30 nM
ΔΔG, ΔG10 °C – ΔG25 °C (5,6diFW-LmrR; 5,6diFW LmrR): 0.048 kcal/mol
Free energy of ligand binding ΔG10 °C (5,6diFW-LmrR; 5,6diFW LmrR, 10 °C, derived from Kd): –33.9 kJ/mol
Free energy of ligand binding ΔG25 °C (5,6diFW-LmrR; [5]): –34.1 kJ/mol
Kd (5,6diFW-LmrR; 10 °C): 560 ± 50 nM
Kd (5,6diFW-LmrR; 25 °C): 1050 ± 60 nM
